What was measured:
[1] = tested on: TNSALP-null (Akp2^−/−) mice, in vivo model of bone disease (WT, Het, KO); test: MicroCT of femur cortical bone (Example 2); details: for Normalized bone area-cortical bone volume fraction: FIG. 17
Experimental: (§1) TNSALP-null (Akp2^−/−) mice served as an in vivo model of bone disease to analyze the effects of the iminosugar, Miglustat.
(§2) Mice were obtained, bred and genotyped as described above. Five mice of each genotype (Wild-type (WT), heterozygous (Het), and homozygous (KO)) were included in each treatment group (i.p. administration of PBS, 400 mg/kg Miglustat, and 1200 mg/kg Miglustat as described above). A total of 44 mice were analyzed (1 Akp2^−/− homozygous mouse was omitted in the PBS group). Mice were scanned using microCT and analyzed as described above. Cortical bone in the middle 20% of bone length from trochanter to distal condyles in the femur was scanned and cortical thickness and bone mineral density were obtained. Cortical thickness (Ct.Th, μm) was used as an indication of average thickness of cortical bone. Trabecular bone of the final 625 μm before the femoral growth plate was scanned.
As depicted in FIG. 14, Miglustat improved cortical thickness in heterozygous mice at 400 mg/kg. […] Cortical bone area (Ct.Ar, mm^2) was determined by dividing cortical volume by the number of slices X slice thickness. As depicted in FIG. 16, cortical bone area increased in Wild-type (WT) and Heterozygotes (Het) administered 400 mg/kg Miglustat. […] In Homozygotes administered 1,200 mg/kg normalized bone area-cortical bone volume fraction decreased.
The attenuation depended on physical density and electron density of bone. As depicted in FIG. 18, high doses of Miglustat improved tissue mineral density in Heterozygotes.

[2] = tested on: TNSALP-null (Akp2^−/−) mice, in vivo model of bone disease (WT, Het, KO); test: MicroCT of femur trabecular bone (Example 2)
Experimental: as §1, §2
Bone volume fraction is the ratio of the segmented bone volume to the total volume of the region of interest.
Trabecular thickness was measured as illustrated in FIG. 23. […] Trabecular separation is the mean distance between trabeculae assessed using direct 3D methods as illustrated in FIG. 25.
As depicted in FIG. 26, the trabecular number changed with Miglustat in both heterozygotes and homozygotes treated with Miglustat. As depicted in FIG. 27, structure model index (SMI) increased in homozygous AKP mice treated with Miglustat. […] SMI represents an indicator of the structure of the trabeculae. SMI will be zero for parallel plates and 3 for cylindrical rods.
Connectivity density is a measure of the degree of connectivity of trabeculae normalized by total volume.

[3] = tested on: patients with Type 1 GD; details: cited from earlier work
[4] = tested on: TNSALP-null (Akp2^−/−) mice (WT, Het, KO); test: Growth (percent change in weight) and toxicity in treated mice (Example 2); assay type: in vivo
Experimental: At the age of one month, mice were administered 100 μL injections of phosphate-buffered saline (PBS) with 0 mg/kg, 400 mg/kg, or 1200 mg/kg of Miglustat (250 mg/mL) to the peritoneal cavity for gradual diffusion of the drug. Mice were massed each day to adjust Miglustat dosages to body weight. Intraperitoneal injections (IP) continued daily for one month before mice were euthanized with CO2 at the age of two months. Mice were on a Pyridoxine Supplement Diet (“Vitamin B6 Diet”) to prevent seizures. NAPA NECTAR™ (Systems Engineering™) was provided every alternating day to prevent dehydration. Urine samples were collected once a week and blood samples were collected from cheek tissue at the beginning and end of treatment.
as §2, with “Cortical thickness (Ct.Th, μm) was used as an indication of average thickness of cortical bone. Trabecular bone of the final 625 μm before the femoral growth plate was scanned.” left out

CCCCN1C[C@H](O)[C@@H](O)[C@H](O)[C@H]1CO [Miglustat, (2R,3R,4R,5S)-1-butyl-2-(hydroxymethyl)piperidine-3,4,5-triol]
Total cross sectional area inside the periosteal envelope (Tt.Ar) ([1]; Heterozygotes, 400 mg/kg, FIG. 15): slight increase
Tissue mineral density ([1]; Heterozygotes, high doses, FIG. 18): improved
Normalized bone area-cortical bone volume fraction ([1]; Homozygotes, 1,200 mg/kg): decreased
Cortical bone area (Ct.Ar) ([1]; Wild-type (WT) and Heterozygotes (Het), 400 mg/kg, FIG. 16): increased
Normalized bone area-cortical bone volume fraction ([1]; Wild-type and Heterozygotes): did not have an effect
Cortical thickness (Ct.Th) ([1]; heterozygous mice, 400 mg/kg, FIG. 14): improved
Trabecular separation (Tb.Sp), femur ([2]; FIG. 24): decrease
Appearance of trabeculae (microCT images) ([2]; Homozygotes (KO), 400 and 1200 mg/kg, FIGS. 20A-20D): restore the appearance of narrow trabeculae
Overall bone volume (bone volume fraction), femur ([2]; after treatment, FIG. 21): not significantly increased
Trabecular number (Tb.N), femur ([2]; heterozygotes and homozygotes, FIG. 26): changed
Connectivity density (Conn. D), femur ([2]; heterozygotes or homozygotes, FIG. 28): did not change
Trabecular thickness (Tb.Th), femur ([2]; homozygotes, FIG. 22): lower
Structure model index (SMI), femur ([2]; homozygous AKP mice, FIG. 27): increased
BMD [3]: increased
Bone pain [3]: alleviated
Toxicity ([4]; 400 mg/kg/day and 1,200 mg/kg/day delivered intraperitoneally): no toxicity was observed
Growth as measured by percent change in weight ([4]; high doses of Miglustat, particularly notable in WT and Het mice, FIG. 12): impeded growth

Reference: patent US20180296542A1, “IMINOSUGARS FOR IMPROVING BONE MINERAL DENSITY IN BONE DISEASE” (Saint Louis University, priority 2015, published 2018)
